In PubChem BioAssay (NCI):
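All cell lines were grown in 96-well plates and treated with compound for 48 hours. GI50 is the concentration that inhibits growth by half. TGI is the concentration that stops growth completely.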 Where a SMILES comes first, the peptide text is derived from it. The star is where a group is joined. Palmitoyl = CCCCCCCCCCCCCCCC(=O)*

Assays:
Test in all cases: inhibition of tumour cell growth, NCI panel, 48 h
RXF 393 renal = system: RXF 393 renal
NCI-H226 lung = system: NCI-H226 lung
A549 NSCLC = system: A549 NSCLC
NCI-H522 lung = system: NCI-H522 lung
SK-OV-3 ovarian = system: SK-OV-3 ovarian
HCC-2998 colon = system: HCC-2998 colon
DU-145 prostate = system: DU-145 prostate
PC-3 prostate = system: PC-3 prostate
786-0 renal = system: 786-0 renal
M14 melanoma = system: M14 melanoma

Row | Compound | TGI (RXF 393 renal) | TGI (NCI-H226 lung) | TGI (A549 NSCLC) | TGI (NCI-H522 lung) | TGI (SK-OV-3 ovarian) | TGI (HCC-2998 colon) | TGI (DU-145 prostate) | TGI (PC-3 prostate) | TGI (786-0 renal) | TGI (M14 melanoma) | GI50 (RXF 393 renal) | GI50 (DU-145 prostate) | GI50 (NCI-H226 lung) | GI50 (A549 NSCLC) | GI50 (NCI-H522 lung) | GI50 (SK-OV-3 ovarian) | GI50 (M14 melanoma) | GI50 (HCC-2998 colon)
1 | CCOC(=O)/C=C1/C(CCCOCc2ccccc2)C2CCCC23CC2(CCN13)OCCO2 (configuration not stated) | 37.5 µM | 66.7 µM | 63.9 µM | 31.3 µM | 82.9 µM | > 100 µM | – | – | – | – | – | – | – | – | – | – | – | –
2 | CC(C)(C)c1ccc2c(c1)C#Cc1cc3c(cc1OCCCO2)C#Cc1cc(C(C)(C)C)ccc1OCCCO3 | > 100 µM | – | > 100 µM | > 100 µM | > 100 µM | > 100 µM | > 100 µM | > 100 µM | > 100 µM | > 100 µM | – | – | – | – | – | – | – | –
3 | CCc1n[nH]c(=O)n1-c1ccc2ccccc2c1 | > 100 µM | > 100 µM | > 100 µM | > 100 µM | > 100 µM | > 100 µM | > 100 µM | – | > 100 µM | > 100 µM | – | – | – | – | – | – | – | –
4 | O=C(CCSC1=NCCCN1)c1ccc(F)cc1 | 33 µM | 41.9 µM | 40.3 µM | 3.86 µM | 43.5 µM | 36.5 µM | 36 µM | 31 µM | 14.1 µM | 32.4 µM | – | – | – | – | – | – | – | –
5 | CCN(C(=O)N[C@@H](C)C(=O)N[C@@H](Cc1ccccc1)C(=O)OC)c1ccccc1 | > 100 µM | > 100 µM | > 100 µM | > 100 µM | > 100 µM | > 100 µM | > 100 µM | > 100 µM | > 100 µM | > 100 µM | – | – | – | – | – | – | – | –
6 | Cc1cc(N(C)C)c2ccccc2[n+]1CCCCCCCCCC[n+]1c(C)cc(N(C)C)c2ccccc21 | 35 µM | > 100 µM | 18 µM | > 29.7 µM | 5.81 µM | 13.5 µM | 16.2 µM | 7.48 µM | 19.5 µM | 12 µM | – | – | – | – | – | – | – | –
7 | CSc1csc(-c2ccc(-c3ccc(-c4cc(SC)cs4)s3)s2)c1 | – | > 100 µM | > 100 µM | – | > 100 µM | > 100 µM | – | > 100 µM | > 100 µM | > 100 µM | – | – | – | – | – | – | – | –
8 | COc1ccc(CC(N)=O)cc1OC | > 1250 µM | > 1250 µM | > 1250 µM | > 1250 µM | > 1250 µM | > 1250 µM | – | – | – | – | – | – | – | – | – | – | – | –
9 | CC(C)C1=CC23CCC4C(C)(C(=O)O)CCCC4(C)C2CC1C1C(=O)N(CCCCCCN2C(=O)C4C5CC6C7(C)CCCC(C)(C(=O)O)C7CCC6(C=C5C(C)C)C4C2=O)C(=O)C13 (configuration not stated) | 28.3 µM | – | 45.3 µM | 26.6 µM | – | 27.1 µM | – | 19 µM | – | 27.5 µM | – | – | – | – | – | – | – | –
10 | CN1CCN(Cc2cc3c(nn2)-c2ccccc2C3=O)CC1 | > 100 µM | > 100 µM | > 100 µM | 64.3 µM | > 100 µM | – | > 100 µM | > 100 µM | > 100 µM | > 100 µM | – | – | – | – | – | – | – | –
11 | CN1Cc2c(nc(-c3ccccc3)c[n+]2[O-])N(C)C1 | – | > 100 µM | > 100 µM | > 100 µM | > 100 µM | > 100 µM | – | – | > 100 µM | > 100 µM | – | – | – | – | – | – | – | –
12 | COc1cccc2c1OC(c1cccc3ccccc13)C([N+](=O)[O-])=C2 (configuration not stated) | 2.58 µM | 4.32 µM | 3.75 µM | 3.21 µM | 9.89 µM | – | 8.9 µM | 2.37 µM | 3.95 µM | 2.77 µM | – | – | – | – | – | – | – | –
13 | O=C1/C(=C/c2ccc(Cl)cc2)CCCc2ccccc21 | – | 35.9 µM | 60 µM | 26.5 µM | 96.5 µM | 36.7 µM | 59 µM | 53.1 µM | 32.4 µM | 28.9 µM | – | – | – | – | – | – | – | –
14 | CCOC(=O)c1c2cccccc-2nc1Nc1cccc2c(C)ccnc12 | > 10 µM | > 10 µM | > 10 µM | – | > 10 µM | > 10 µM | > 10 µM | > 10 µM | > 10 µM | > 10 µM | – | – | – | – | – | – | – | –
15 | Cn1ncc2c(NCc3ccccc3)ncnc21 | > 100 µM | > 100 µM | > 100 µM | – | > 100 µM | > 100 µM | > 100 µM | – | > 100 µM | – | – | – | – | – | – | – | – | –
16 | CC(C)(C)N=C(N)NC#N | > 100 µM | – | > 100 µM | – | > 100 µM | > 100 µM | > 100 µM | > 100 µM | > 100 µM | > 100 µM | – | – | – | – | – | – | – | –
17 | CCOC(=O)CNC(=O)NC12CC3CC(CC(C3)C1)C2 | 259 µM | > 473 µM | > 550 µM | > 536 µM | > 517 µM | 319 µM | – | – | – | – | – | – | – | – | – | – | – | –
18 | C=C(C)[C@H]1C2=CC(C(=O)OC)=C(C[C@H](C(=C)C)[C@@H](O)[C@@H](O)C3=C[C@H]1OC3=O)O2 | > 100 µM | > 100 µM | > 100 µM | > 100 µM | > 100 µM | – | > 100 µM | – | > 100 µM | > 100 µM | – | – | – | – | – | – | – | –
19 | CC(C(=O)COCc1ccccc1)P1(=O)OC(C)(C)CN1C(C)(C)C (configuration not stated) | > 100 µM | > 100 µM | > 100 µM | > 100 µM | > 100 µM | > 100 µM | > 100 µM | – | > 100 µM | > 100 µM | – | – | – | – | – | – | – | –
20 | O=C(c1ccccc1)c1ccc2c(c1)NC(=O)c1ccccc1SSc1ccccc1C(=O)N2 | > 100 µM | > 100 µM | > 100 µM | > 100 µM | > 100 µM | – | > 100 µM | > 100 µM | > 100 µM | > 100 µM | – | – | – | – | – | – | – | –
21 | O=C(OCC(Cl)(Cl)Cl)N1CC[C@H](C2CCCCC2)C1 | 36.8 µM | – | 36.1 µM | 32.5 µM | 31.8 µM | 34.3 µM | 31.8 µM | 48.7 µM | 33.1 µM | 39.8 µM | – | – | – | – | – | – | – | –
22 | CCCCCCCCCCCCCCCC(=O)N1CCCC1C(=O)NCC(=O)NC(Cc1ccccc1)C(=O)N1CCCC1C(=O)NC(CO)C(=O)NC(Cc1ccc(O)cc1)C(=O)NC(CCCCN)C(=O)NC(CC(C)C)C(=O)NC(CCCN=C(N)N)C(=O)N1CCCC1C(=O)NCC(N)=O (configuration not stated) (Palmitoyl-PGFPSYKLRPG-NH2; configuration not given here) | 53 µM | 44.4 µM | 35.4 µM | 60.3 µM | 48.1 µM | 24.1 µM | 39.9 µM | – | – | 27.3 µM | 23.2 µM | 18.3 µM | 23.5 µM | 17.5 µM | 25.1 µM | 23.2 µM | 14.2 µM | 10.4 µM
23 | O=C1CSC2(CC(/C=C/c3cccs3)=NN2c2cccc(S(=O)(=O)O)c2)N1c1nc2ccccc2s1 (configuration not stated) | > 100 µM | > 100 µM | > 100 µM | > 100 µM | – | > 100 µM | > 100 µM | > 100 µM | > 100 µM | > 100 µM | – | – | – | – | – | – | – | –
